Results reported in patent US20120225092A1, “COSMETIC USE OF SKIN CELL AUTOPHAGY ACTIVATORS” (SOCIETE INDUSTRIELLE LIMOUSINE D'APPLICATION BIOLOGIQUE …, priority 2008, published 2012).
Like-named read-outs stand apart in the source and are kept apart here.

Columns and labels:
[1] = system: protein DRAM; conditions: H2O2 125 μM, relative to control without stress
Experimental: (§1) The protocol is as follows: • Cultivation of cells for 24 hours in a complete culture medium. • Removal of the culture medium and replacement with the non-nutritive culture medium that contains the oxidizing agent H2O2 for 3 hours (different doses of H2O2—125 μM and/or 250 μM—have been tested). • Removal of the oxidizing agent and the non-nutritive culture medium, replacement by a complete culture medium without an oxidizing agent. • Evaluation of the expression of MAP-LC3, the phosphorylated protein p53, or the protein DRAM after cellular recovery. Several recovery times have been selected (0.5 hour, 1 hour, 1.5 hours, or 2 hours of recovery).
It is also possible to evaluate the autophagy of stressed cutaneous cells by visualizing the expression of the protein DRAM by Western Blott.
The evaluation of the expression of DRAM was therefore analyzed under these moderate stress conditions with 125 μM of H2O2 on HaCaT keratinocyte cultures and on normal human keratinocytes. The expression of DRAM is presented in the table below in percentage relative to the control (without stress).

[2] = system: MAP-LC3; conditions: relative to control without stress
Experimental: This study has as its objective to compare the autophagy level of young cells (from donors with a mean age of 26 years) and aged cells (from donors with a mean age of 70 years) that are subjected to the same oxidative and nutritive stresses.
The evaluation of the autophagy level was considered by the analysis of the expression of the protein MAP-LC3 by Western Blott.
The protocol that is put into place is as follows: • Cultures of so-called young or aged cells for 24 hours in the complete culture medium, • Removal of the complete culture medium, replacement with the non-nutritive culture medium that contains the oxidizing agent H2O2 for 3 hours at different doses, • Removal of the oxidizing agent, replacement by the complete culture medium without an oxidizing agent, • Evaluation of the expression of MAP-LC3 after cellular recovery.

[3] = system: phosphorylated protein p53; conditions: H2O2 125 μM, relative to control without stress
Experimental: as §1
It is also possible to evaluate the autophagy of stressed cutaneous cells by visualizing the expression of the phosphorylated protein p53 by Western Blott.
The evaluation of the expression of the phosphorylated protein p53 has therefore been analyzed under these moderate stress conditions with 125 μM of H2O2 on HaCaT keratinocyte cultures and on normal human keratinocytes. The expression of phosphorylated p53 is presented in the table below in percentage relative to the control (without stress).

[4] = system: MAP-LC3
Experimental: as §1
It is possible to evaluate the autophagy of stressed cutaneous cells by visualizing the expression of the protein MAP-LC3 by immunofluorescent marking.
The evaluation of the expression MAP-LC3 was analyzed under these moderate stress conditions (125 μM and 250 μM of hydrogen peroxide H2O2) on HaCaT keratinocyte cultures and on normal human keratinocytes. With the immunomarking results being qualitative, several levels of expression of ATG5-12 were defined: […]

OO [H2O2, hydrogen peroxide]
Expression of DRAM (%) ([1]; recovery time 0.5 hour): 120%
Expression of DRAM (%) ([1]; recovery time 1 hour): 180%
Expression of DRAM (%) ([1]; recovery time 1.5 hours): 390%
Expression of DRAM (%) ([1]; recovery time 2 hours): 200%
Expression of MAP-LC3 On Aged Cells ([2]; H2O2 125 μM for 3 hours, aged cells (donors mean age 70 years)): 138%
Expression of MAP-LC3 On Young Cells ([2]; H2O2 125 μM for 3 hours, young cells (donors mean age 26 years)): 172%
Expression of MAP-LC3 On Aged Cells ([2]; H2O2 250 μM for 3 hours, aged cells): 187%
Expression of MAP-LC3 On Young Cells ([2]; H2O2 250 μM for 3 hours, young cells): 322%
Expression of MAP-LC3 On Aged Cells ([2]; H2O2 400 μM for 3 hours, aged cells): 135%
Expression of MAP-LC3 On Young Cells ([2]; H2O2 400 μM for 3 hours, young cells): 168%
Expression of MAP-LC3 On Aged Cells ([2]; H2O2 600 μM for 3 hours, aged cells): 96%
Expression of MAP-LC3 On Young Cells ([2]; H2O2 600 μM for 3 hours, young cells): 143%
Expression of MAP-LC3 On Aged Cells ([2]; H2O2 1000 μM for 3 hours, aged cells): 92%
Expression of MAP-LC3 On Young Cells ([2]; H2O2 1000 μM for 3 hours, young cells): 117%
Phosphorylated Expression p53 (%) ([3]; recovery time 0.5 hour): 221%
Phosphorylated Expression p53 (%) ([3]; recovery time 1 hour): 140%
Phosphorylated Expression p53 (%) ([3]; recovery time 2 hours): 128%
Expression of MAP-LC3 ([4]; H2O2 125 μM for 3 hours in non-nutritive medium, recovery time 0.5 hour, HaCaT and normal human keratinocytes): ++
Expression of MAP-LC3 ([4]; H2O2 125 μM for 3 hours in non-nutritive medium, recovery time 1 hour): ++
Expression of MAP-LC3 ([4]; H2O2 125 μM for 3 hours in non-nutritive medium, recovery time 1.5 hours): +++
Expression of MAP-LC3 ([4]; H2O2 125 μM for 3 hours in non-nutritive medium, recovery time 2 hours): ++
Expression of MAP-LC3 ([4]; H2O2 250 μM for 3 hours in non-nutritive medium, recovery time 0.5 hour): ++
Expression of MAP-LC3 ([4]; H2O2 250 μM for 3 hours in non-nutritive medium, recovery time 1 hour): +++
Expression of MAP-LC3 ([4]; H2O2 250 μM for 3 hours in non-nutritive medium, recovery time 1.5 hours): ++
Expression of MAP-LC3 ([4]; H2O2 250 μM for 3 hours in non-nutritive medium, recovery time 2 hours): +
